Measured values reported in ChEMBL document CHEMBL4043217, “A prodrug design for improved oral absorption and reduced hepatic interaction” (Bioorg Med Chem, 2017).
Activity calls are given as the source filed them. The calls are words filed in the database; no cut-off is given here.

What was measured:
Rattus norvegicus [1] = assay: Estrogenic effect in ovariectomized adult female Wistar rat assessed as uterine weight level at 10 ug, po dosed from day 1 to 3 and measured on day 4 relative to untreated control; type: functional
Carbonic anhydrase 2 = Carbonic anhydrase 2 (Homo sapiens, UniProt P00918)
Description: Inhibition of human CA2 catalytic activity pre-incubated for 15 mins followed by 4-NPA substrate addition and measured every 12 to 15 secs for 5 mins by spectrophotometry

[2] = Prodrug conversion in human plasma assessed as esterase-mediated estradiol release by measuring saponification level after 10 mins by ELISA method; type: ADME; settings: isolated protein
Rattus norvegicus [3] = assay: Estrogenic effect in ovariectomized adult female Wistar rat assessed as uterine weight level at 3 ug, po dosed from day 1 to 3 and measured on day 4 relative to untreated control; type: functional
Rattus norvegicus [4] = assay: Estrogenic effect in ovariectomized adult female Wistar rat assessed as uterine weight level at 1 ug, po dosed from day 1 to 3 and measured on day 4 relative to untreated control; type: functional
[5] = Oral bioavailability life in Sprague-Dawley rat plasma at 5 mg/kg; type: ADME, organism-based
[6] = Clearance in Sprague-Dawley rat plasma at 1 mg/kg, iv; type: ADME, organism-based
[7] = Half life in Sprague-Dawley rat plasma at 5 mg/kg, po; type: ADME, organism-based
[8] = Volume of distribution in Sprague-Dawley rat plasma at 1 mg/kg, iv; type: ADME, organism-based
[9] = Volume of distribution in Sprague-Dawley rat blood at 1 mg/kg, iv; type: ADME, organism-based
[10] = Oral bioavailability life in Sprague-Dawley rat blood at 5 mg/kg; type: ADME, organism-based
[11] = Half life in Sprague-Dawley rat blood at 5 mg/kg, po; type: ADME, organism-based
[12] = Clearance in Sprague-Dawley rat blood at 1 mg/kg, iv; type: ADME, organism-based
Estrogen receptor = target: T1, Estrogen receptor (Homo sapiens, UniProt P03372); assay: Binding affinity to ER (unknown origin) expressed in UAS-bla GripTite 293 cells by Select screen competitive binding assay; type: cell-based
T1 sequence (P03372 whole entry): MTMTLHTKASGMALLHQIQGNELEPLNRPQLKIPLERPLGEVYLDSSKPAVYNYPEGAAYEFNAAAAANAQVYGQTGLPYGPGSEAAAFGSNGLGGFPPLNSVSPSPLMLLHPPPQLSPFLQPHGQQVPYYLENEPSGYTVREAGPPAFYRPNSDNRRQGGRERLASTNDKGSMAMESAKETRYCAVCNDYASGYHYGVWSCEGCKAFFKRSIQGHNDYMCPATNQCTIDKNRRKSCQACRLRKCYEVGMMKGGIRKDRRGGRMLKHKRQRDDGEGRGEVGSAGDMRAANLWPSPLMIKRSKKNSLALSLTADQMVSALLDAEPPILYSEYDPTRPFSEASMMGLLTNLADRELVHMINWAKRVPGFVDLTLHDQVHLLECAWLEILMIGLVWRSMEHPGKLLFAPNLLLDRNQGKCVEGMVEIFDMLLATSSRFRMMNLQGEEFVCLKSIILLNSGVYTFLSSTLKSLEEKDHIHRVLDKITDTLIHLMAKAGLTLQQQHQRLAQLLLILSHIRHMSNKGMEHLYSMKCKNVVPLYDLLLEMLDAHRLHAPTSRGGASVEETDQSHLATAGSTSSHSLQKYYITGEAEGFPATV

Rattus norvegicus [13] = assay: AUC (0 to 3 hrs) in rat at 3 mg, po; type: ADME; design: time < 3 hr, dose 3 mg, route oral; settings: in vivo
Rattus norvegicus [14] = assay: Increase in testosterone level in orally dosed male rat serum relative to testosterone-propionate; type: functional, organism-based

| SMILES | Activity (Rattus norvegicus [1]) | IC50 (Carbonic anhydrase 2) | other results |
| --- | --- | --- | --- |
| C[C@]12CC[C@@H]3c4ccc(O)cc4CC[C@H]3[C@@H]1CC[C@@H]2OC(=O)[C@@H]1CCCN1C(=O)c1ccc(S(N)(=O)=O)cn1 | 268% | 5000 nM |  |
| C[C@]12CC[C@@H]3c4ccc(O)cc4CC[C@H]3[C@@H]1CC[C@@H]2OC(=O)[C@@H]1CCCN1C(=O)c1ccc(-c2ccc(S(N)(=O)=O)cc2)cc1 | 309% | 290 nM |  |
| C[C@]12CC[C@@H]3c4ccc(O)cc4CC[C@H]3[C@@H]1CC[C@@H]2OC(=O)CNC(=O)c1ccc(S(N)(=O)=O)cc1 |  | 65 nM | Drug metabolism [2]: 87% |
| C[C@H](NC(=O)c1ccc(S(N)(=O)=O)cc1)C(=O)O[C@H]1CC[C@H]2[C@@H]3CCc4cc(O)ccc4[C@H]3CC[C@]12C |  | 250 nM | Activity (Rattus norvegicus [3]): 163%; Drug metabolism [2]: 70% |
| C[C@]12CC[C@@H]3c4ccc(O)cc4CC[C@H]3[C@@H]1CC[C@@H]2OC(=O)[C@@H]1CCCN1c1ccc(S(N)(=O)=O)cc1 | 92% | 198 nM |  |
| C[C@]12CC[C@@H]3c4ccc(O)cc4CC[C@H]3[C@@H]1CC[C@@H]2OC(=O)[C@@H]1CCCN1C(=O)c1ccc(S(N)(=O)=O)nc1 | 259% | 250 nM |  |
| C[C@]12CC[C@@H]3c4ccc(O)cc4CC[C@H]3[C@@H]1CC[C@@H]2OC(=O)[C@@H]1CCCN1C(=O)c1coc(S(N)(=O)=O)c1 | 313% | 7 nM |  |
| CC(C)(NC(=O)c1ccc(S(N)(=O)=O)cc1)C(=O)O[C@H]1CC[C@H]2[C@@H]3CCc4cc(O)ccc4[C@H]3CC[C@]12C | 97% | 232 nM | Activity (Rattus norvegicus [4]): 107%; Drug metabolism [2]: 97% |
| Cc1cc(C(=O)N2CCC[C@H]2C(=O)O[C@H]2CC[C@H]3[C@@H]4CCc5cc(O)ccc5[C@H]4CC[C@]23C)ccc1S(N)(=O)=O | 258% | 210 nM |  |
| C[C@]12CC[C@@H]3c4ccc(O)cc4CC[C@H]3[C@@H]1CC[C@@H]2OC(=O)[C@@H]1CCCN1C(=O)c1ccc(S(N)(=O)=O)o1 | 318% | 250 nM |  |
| C[C@]12CC[C@@H]3c4ccc(O)cc4CC[C@H]3[C@@H]1CC[C@@H]2OC(=O)[C@@H]1CCCN1C(=O)c1cccc(S(N)(=O)=O)c1 |  | 300 nM |  |
| C[C@]12CC[C@@H]3c4ccc(O)cc4CC[C@H]3[C@@H]1CC[C@@H]2OC(=O)[C@@H]1CCCN1C(=O)Cc1ccc(S(N)(=O)=O)cc1 | 267% | 500 nM |  |
| C[C@]12CC[C@@H]3c4ccc(O)cc4CC[C@H]3[C@@H]1CC[C@@H]2OC(=O)[C@H](Cc1ccccc1)NC(=O)c1ccc(S(N)(=O)=O)cc1 | 117% | 100 nM | Activity (Rattus norvegicus [4]): 95%; Drug metabolism [2]: 75% |
| C[C@]12CC[C@@H]3c4ccc(O)cc4CC[C@H]3[C@@H]1CC[C@@H]2OC(=O)[C@@H]1CCCN1S(N)(=O)=O | 268% | 10000 nM |  |
| CC(C)[C@H](NC(=O)c1ccc(S(N)(=O)=O)cc1)C(=O)O[C@H]1CC[C@H]2[C@@H]3CCc4cc(O)ccc4[C@H]3CC[C@]12C | 267% | 202 nM | Activity (Rattus norvegicus [4]): 105%; Drug metabolism [2]: 89% |
| C[C@]12CC[C@@H]3c4ccc(O)cc4CC[C@H]3[C@@H]1CC[C@@H]2OC(=O)[C@@H]1CCCN1Cc1ccc(S(N)(=O)=O)cc1 | 272% | 129 nM |  |
| C[C@]12CC[C@@H]3c4ccc(O)cc4CC[C@H]3[C@@H]1CC[C@@H]2OC(=O)[C@@H]1CCCN1C(=O)c1ccc(S(N)(=O)=O)cc1 |  |  | bioavailability [5]: 102%; clearance [6]: 62.8 mL/min/kg; half-life [7]: 4.58 h; Vd [8]: 5.68 L/kg; Vd [9]: 0.24 L/kg; bioavailability [10]: 122%; half-life [11]: 4.9 h; clearance [12]: 3.86 mL/min/kg; Activity (Rattus norvegicus [4]): 244%; EC50 (Estrogen receptor): 432 nM |
| C[C@]12CC[C@@H]3c4ccc(O)cc4CC[C@H]3[C@@H]1CC[C@@H]2OC(=O)[C@@H]1CCCN1C(=O)c1cccc(-c2cccc(S(N)(=O)=O)c2)c1 | 216% | 10000 nM |  |
| C[C@]12CC[C@H]3[C@@H](CCC4=CC(=O)CC[C@@]43C)[C@@H]1CC[C@@H]2OC(=O)[C@@H]1CCCN1C(=O)c1ccc(S(N)(=O)=O)cn1 |  |  | AUC (Rattus norvegicus [13]): 330 ng/mL; Activity (Rattus norvegicus [14]): Active |
| C[C@@H](C(=O)O[C@H]1CC[C@H]2[C@@H]3CCc4cc(O)ccc4[C@H]3CC[C@]12C)N(C)C(=O)c1ccc(S(N)(=O)=O)cc1 | 289% | 325 nM | Activity (Rattus norvegicus [4]): 145%; Drug metabolism [2]: 84% |
| C[C@]12CC[C@@H]3c4ccc(O)cc4CC[C@H]3[C@@H]1CC[C@@H]2OC(=O)[C@@H]1CCCN1C(=O)c1cccc(-c2ccc(S(N)(=O)=O)cc2)c1 | 153% | 120 nM |  |
